Results taken from patent publication US5776935A, “Pyrido-phtalazin diones and their use against neurological disorders associated with excitotoxicity and malfunctioning of glutamatergic neurotransmission” (Merz & Co. GmbH & Co., priority 1996, dated 1998).
Where two headings read alike, the source gives them in different places.

Assays:
[1] = tested on: AMPA receptor; assay: Patch clamp, inward currents to AMPA in cultured superior colliculus neurones; assay type: cell-based, rat; conditions: AMPA 100 μM
Procedure: Cells were mechanically dissociated in 0.05% DNAase / 0.3% ovomucoid (Sigma) following a 15 minute pre-incubation with 0.66% trypsin / 0.1% DNAase (Sigma). The dissociated cells were then centrifuged at 18G for 10 minutes, resuspended in minimum essential medium (Gibco) and plated at a density of 200,000 cells cm onto poly-L-lysine (Sigma)-precoated plastic petri dishes (Falcon). The cells were nourished with NaHCO3 /HEPES-buffered minimum essential medium supplemented with 5% foetal calf serum and 5% horse serum (Gibco) and incubated at 37° C. with 5%CO2 at 95% humidity. The medium was exchanged completely following inhibition of further glial mitosis with cytosine-β-D-arabinofuranoside (20 μM Sigma) after about 7 days in vitro. Thereafter the medium was exchanged partially twice weekly. […] Moreover, the relatively small neurones (soma 15-20 μm .phi.) are ideally suited to minimise problems of buffered diffusion for concentration clamp experiments.
Patch clamp recordings were made from these neurones with polished glass electrodes (4-6 m.OMEGA.) in the whole cell mode at room temperature (20°-22° C.) with the aid of an EPC-7 amplifier (List). Test substances were applied by switching channels of a custom made fast superfusion system with a common outflow (10-20 ms exchange times). The contents of the intracellular solution were as follows (mM): CsCl (120), TEACl (20), EGTA (10), MgCl2 (1), CaCl2 (0.2), glucose (10), ATP (2), cAMP (0.25); pH was adjusted to 7.3 with CsOH or HCl. The extracellular solutions had the following basic composition (mM): NaCl (140), KCl (3), CaCl2 (0.2), glucose (10), HEPES (10), sucrose (4.5), tetrodotoxin (TTX 3*10-4). For most experiments glycine (1 μM) was present in all solutions. Experiments to test the glycine-dependence of the tricyclic "pyrido-phtalazin diones" were performed in the continuous presence of increasing concentrations of glycine (1-10 μM).
In contrast, three of these potent glycine, antagonists were only very weak antagonists of inward currents to AMPA (100 μM). […] This profile of action, although very weak, is typical for competitive AMPA receptor antagonists which preferentially block the peak non-desensitised state, low affinity state of the receptor (see Parsons et al., 1994).

[2] = molecular target: T1, NMDA receptor (Rattus norvegicus, UniProt P35439); assay: Microelectrophoretic application of NMDA to spinal neurones in vivo; conditions: i.v., responses of single rat spinal neurones
T1 construct: endogenous in cells
Procedure: (§1) The ability of these glycineB antagonists to act as NMDA receptor antagonists in vivo was assessed using i.v. administration against responses of single neurones in the rat spinal cord to microelectrophoretic application of AMPA and NMDA.

[3] = tested on: AMPA; assay: Microelectrophoretic application of AMPA to spinal neurones in vivo; conditions: i.v., responses of single rat spinal neurones
Procedure: as §1

[4] = In vivo systemic and / or CNS availability
[5] = tested on: cortical neurones; assay: Excitotoxicity in vitro (NMDA, LDH efflux); assay type: cell-based, rat; conditions: for IC50: Rattus norvegicus, Cortical neurone, 0.5 mM NMDA/1 μM glycine, 24 h, read-out: Cytotoxicity in vitro IC50; for neuroprotection in vitro: low μM concentrations
Procedure: Isolation of cortical neurones was similar to that described for patch clamp recordings except for the use of foetal rats at 17-19 days gestation. Neurones were plated in 24-multiwell (Greiner) at a density of 300,000 cells/well coated with poly-D-lysine 0.025 mg/ml. Cells were cultured in Dulbecco's modified essential medium (DMEM, GIBCO) supplemented with 10% heat inactivated foetal calf serum (GIBCO). Cultures were maintained at 37° C. at 5% CO2. The medium was changed first after one week and then every 3 days by replacing half of the medium with fresh medium. Cultures aged 17 days were used for experiments.
Exposure to EAA was performed in serum-free MEM-N2 medium (Bottenstein 1979) containing 0.5 mM NMDA/1 μM glycine and the drug to be tested. Cells were pre-incubated with drugs and 1 μM glycine for 15 minutes before addition of NMDA. After 24 h the cytotoxic effect was morphologically examined under a phase contrast microscope and biochemically quantitified by measuring the efflux of LDH.
The activity of LDH was determined in the supernatant after 24 h according to the method of Wroblewski and La Due (1955). Briefly, 0.1 ml of the supernatant was added to 0.9 ml sodium-phosphate buffer (pH=7.5) containing sodium pyruvate (22.7 mM) and NADH (0.8 mg/10 ml) at room temperature. The conversion of pyruvate to lactate was recorded at 340 nm over 10 minutes in a Kontron Spectrophotometer.

[6] = tested on: organic acid transport; assay: Duration of anticonvulsive action with and without probenecid; assay type: in vivo, mouse; conditions: listed as 2/514
Procedure: To assess NMDA receptor antagonistic properties of the tested agents by assessing anticonvulsive effects. Additionally the role of organic acid transporters in the elimination from the brain of tested agents was assessed by using an inhibitor, Probenicid, on the duration of anticonvulsive activity.
Male albino Swiss mice (19-21 g) housed 10-15 per cage were used for the NMDA lethality test (Leander et al., 1988). For pentylenetetrazol (PTZ)-induced convulsions male albino Swiss mice (25-34 g.) housed 40 per cage (58×38×20 cm) were used while in the maximal electroshock (MES) and motor impairment tests NMR female mice (18-28 g) housed 5 per cage were employed. All animals were kept with water and food ad libittum under a 12-h light-dark cycle (light on at 6 a.m.), and at a controlled temperature (20°±0.5° C.). All experiments were performed between 10 a.m. and 5 p.m. Tested agents were injected 15 min. i.p before the induction of convulsions if not stated otherwise (see below). Mrz 2/502 was dissolved in saline added with NaOH. Most other agents were dissolved in the following solution: 0.606 g Tris; 5.0 g. glucose; 0.5 g. Tween 80; and 95 ml water. The choline and tetramethylammonium salts were dissolved in distilled water.
MES (100 Hz, 0.5 sec shock duration, 50 mA shock intensity, 0.9 ms impulse duration, Ugo Basile) was applied through corneal electrodes. The presence of tonic convulsions was scored (tonic extension of hind paws with minimum angle to the body of 90°). In an additional experiment mice were injected with Probenicid (200 mg/kg) 30 min before administration of the tested agents to assess the role of organic acid transport in elimination (duration of action). The aim was to obtain ED50 s for all parameters scored using the Litchfield Wilcoxon (1949) test for quantal dose responses.
Moreover it seems that choline salts have a longer duration of action. Probenecid injection prolonged considerably the duration of anticonvulsive action of all agents tested. For example the half lives of 2/514 and 2/570 were around 40 and 80 minutes respectively in the absence of probenicid. In the presence of probenicid the half lives were prolonged to around 180 and 210 minutes respectively. Thus, it seems that organic acids transport in the choroid plexus out of the brain plays an important role in the short duration of action of the compounds tested..

[7] = peak currents, read-out: IC50 against peak AMPA induced currents
[8] = peak currents, read-out: Peak AMPA IC50
[9] = plateau currents, read-out: Plateau AMPA IC50

Row | SMILES | IC50 [1, 7] [µM] | IC50 [1, 8] [µM] | IC50 [1, 9] [µM] | Microelectrophoretic NMDA ID50 [2] [mg/kg] | in vivo systemic and / or CNS availability versus associated class I compounds [4] | IC50 [5] [µM] | neuroprotection in vitro [5] | Microelectrophoretic AMPA ID50 [3] [mg/kg] | further results
1 | O=c1[nH]nc(O)c2c1cc1cc(F)ccc1[n+]2[O-] [Mrz 2/516, 8-fluoro-4-hydroxy-1-oxo-1,2-dihydropyridazino[4,5-b]-quinoline 5-oxide] | 18 | 17.6 | > 100 | 1.8 | much better |  |  |  | Microelectrophoretic NMDA ID50 ([2]; listed as 516): 1.8 mg/kg; Microelectrophoretic AMPA ID50 ([3]; listed as 516): 3.6 mg/kg
2 | O=c1[nH][nH]c(=O)c2nc3ccc(Br)cc3cc12 [Mrz 2/503] |  |  |  |  |  | > 20 |  |  | 
3 | O=c1[nH][nH]c(=O)c2nc3ccc(Cl)cc3cc12 [Mrz 2/501] |  |  |  | > 16.0 |  | < 5 | effective neuroprotectants | > 16.0 | 
4 | O=c1[nH]nc(O)c2c1cc1cc(Cl)ccc1[n+]2[O-] [Mrz 2/502, 8-chloro-4-hydroxy-1-oxo-1,2-dihydropyridazino[4,5-b]-quinoline 5-oxide] | 25 | 25 | > 100 | 1.2 |  | < 5 | effective neuroprotectants |  | IC50 ([1]; plateau currents, listed as 502, read-out: Plateau AMPA IC50): 150 µM; Microelectrophoretic NMDA ID50 ([2]; listed as 502): 1.2 mg/kg; Microelectrophoretic AMPA ID50 ([3]; listed as 502): 4.9 mg/kg
5 | O=c1[nH]nc(O)c2c1cc1cc(Br)ccc1[n+]2[O-] [Mrz 2/514, 8-bromo-4-hydroxy-1-oxo-1,2-dihydropyridazino[4,5-b]-quinoline 5-oxide] | 73 | 72.7 | > 100 |  | much better |  |  |  | IC50 ([1]; plateau currents, listed as 514, read-out: Plateau AMPA IC50): 307 µM; half life of anticonvulsive action ([6]; absence of probenecid): around 40 minutes; half life of anticonvulsive action ([6]; presence of probenecid 200 mg/kg, 30 min before): around 180 minutes
6 | O=c1[nH][nH]c(=O)c2nc3ccc(F)cc3cc12 [Mrz 2/519] |  |  |  | > 16.0 |  |  |  | > 16.0 | 
